# Columns and labels:
# [1] = test system: T1, TconTS1; test: HPAEC-PAD of […]'-sialyllactose formed, […] min, Michaelis-Menten fit; format: biochemical, Trypanosoma congolense; conditions: two biological replicates; sialic acid acceptor; donor fetuin (600 μM bound Neu5Ac); 10 mM potassium phosphate pH 7.4, 37 °C; N-glycosylated enzyme
# T1 construct: catalytic plus lectin-like domain; C3 protease site, C-terminal SNAP and Strep tag kept; secreted by CHO Lec1 cells; high-mannose N-glycans; mock-incubated 16 h at 37 °C
# [2] = test system: T2, H-TconTS1; test: as above; format: biochemical, Trypanosoma congolense; conditions: two biological replicates, purified differently after EndoHf; sialic acid acceptor; donor fetuin (600 μM bound Neu5Ac); 10 mM potassium phosphate pH 7.4, 37 °C; EndoHf-treated hypoglycosylated enzyme
# T2 construct: same polypeptide as P1 (SNAP and Strep tag kept, CHO Lec1 cells), but N-glycans partly removed with EndoHf (16 h), leaving single GlcNAc residues; hypoglycosylated
smiles,measurement,setting,value
OC[C@H]1O[C@@H](O[C@H]2[C@H](O)[C@@H](O)C(O)O[C@@H]2CO)[C@H](O)[C@@H](O)[C@H]1O (some centres unmarked) [lactose],KM (apparent),[1],1.7 and 2.0 mM
same,KM (apparent),[2],9.0 and 3.2 mM

# — paper PMC9493392, “N-glycosylation modulates enzymatic activity of Trypanosoma congolense trans-sialidase” (The Journal of Biological Chemistry, 2022)
